Assay results reported in ChEMBL document CHEMBL5034039, “Discovery of Novel, Orally Bioavailable Pyrimidine Ether-Based Inhibitors of ELOVL1” (J Med Chem, 2021).
Blank lines part the entries; values can stand above or below the compound they belong to. The source made the active and inactive calls. The rule behind the calls is not given here.

What was measured:
[1] = biological target: T1, Very long chain fatty acid elongase 1 (Homo sapiens, UniProt Q9BW60); experiment: Inhibition of ELOVL1 in HEK293 cells assessed as reduction of C26:0 lipo phosphatidyl choline synthesis; format: cell-based
T1 sequence (Q9BW60 whole entry): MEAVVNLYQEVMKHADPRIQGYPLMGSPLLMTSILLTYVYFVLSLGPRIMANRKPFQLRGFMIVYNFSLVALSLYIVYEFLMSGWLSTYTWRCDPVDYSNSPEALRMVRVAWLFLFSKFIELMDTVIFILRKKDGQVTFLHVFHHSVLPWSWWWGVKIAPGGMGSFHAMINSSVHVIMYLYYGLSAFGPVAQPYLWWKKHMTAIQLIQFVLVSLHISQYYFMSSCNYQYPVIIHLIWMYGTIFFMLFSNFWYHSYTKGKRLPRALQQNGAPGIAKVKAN

[2] = biological target: T1, Very long chain fatty acid elongase 1; experiment: Inhibition of ELOVL1 (unknown origin)
[3] = Lipophilicity, logD of the compound at pH 7.4; format: physicochemical; conditions: buffer
[4] = Intrinsic clearance in rat hepatocytes assessed per million cells; format: ADME, cell-based, Hepatocyte; conditions: read-out: CLH
[5] = Reduction in C26:0/C16:0 LPC level in ABCD1 knock out mouse CNS at 32 mg/kg, po qd and measured after 3 months relative to control; format: functional; set-up: scale not given: the % may be the effect or the level left; conditions: 2190 h
[6] = Oral bioavailability in rat at 3 mg/kg; format: ADME, organism-based; conditions: in vivo
[7] = biological target: Voltage-gated inwardly rectifying potassium channel KCNH2 (Homo sapiens, UniProt Q12809); experiment: Inhibition of human ERG
[8] = Reduction in C26:0/C16:0 LPC level in wild type Sprague-Dawley rat blood at 50 mg/kg, po qd measured after 28 days relative to control; format: functional; set-up: scale not given: the % may be the effect or the level left; conditions: time 28 day
[9] = Ocular toxicity in rat assessed as corneal opacities at 10 to 50 mg/kg/day, po qd measured after 8 weeks by macroscopic analysis; format: organism-based; conditions: in vivo, 1344 h, dose 10-50 mg/kg/day
[10] = biological target: T2, Very long chain fatty acid elongase 1 (Homo sapiens) (UniProt Q9BW60); experiment: Inhibition of ELOVL1 in HEK293 cells assessed as reduction of C26:0 lipo phosphatidyl choline synthesis at 100 nM in presence of 13C-labeled acetate measured after 48 hrs by mass spectroscopic analysis; format: cell-based
T2 sequence (whole entry): T1 sequence (Q9BW60 whole entry)

[11] = biological target: T3, Very long chain fatty acid elongase 6 (Homo sapiens) (UniProt Q9H5J4); experiment: Inhibition of ELOVL6 in HEK293 cells assessed as reduction of C18:0 lipo phosphatidyl choline synthesis at 100 nM in presence of 13C-labeled acetate measured after 48 hrs by mass spectroscopic analysis; format: cell-based
T3 sequence (whole entry): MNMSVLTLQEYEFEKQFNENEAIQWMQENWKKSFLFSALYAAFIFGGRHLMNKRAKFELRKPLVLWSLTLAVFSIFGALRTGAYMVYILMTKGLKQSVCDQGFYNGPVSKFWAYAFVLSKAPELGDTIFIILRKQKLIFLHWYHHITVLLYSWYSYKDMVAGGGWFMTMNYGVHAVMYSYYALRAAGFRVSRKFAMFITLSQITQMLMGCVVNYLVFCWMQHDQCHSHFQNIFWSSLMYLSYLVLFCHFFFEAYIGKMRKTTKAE

[12] = Inhibition of ELOVL4 in HEK293 cells by radiometric enzyme assay; format: cell-based, Homo sapiens
[13] = Reduction in C26:0 LPC level in wild type mouse blood at 32 mg/kg, po qd and measured after 1 week relative to control; format: functional; set-up: scale not given: the % may be the effect or the level left; conditions: time 1 weeks
[14] = Reduction in C26:0/C16:0 LPC level in ABCD1 knock out mouse blood at >=8 mg/kg, po qd and measured after 1 week relative to control; format: functional; set-up: scale not given: the % may be the effect or the level left; conditions: dose mg/kg >=8; time 1 weeks
[15] = Reduction in C26:0 LPC level in wild type mouse blood at 16 mg/kg, po qd and measured after 1 week relative to control; format: functional; set-up: scale not given: the % may be the effect or the level left; conditions: time 1 weeks
Cynomolgus monkey [16] = experiment: Reduction in C26:0/C16:0 LPC level in wild type Cynomolgus monkey blood at 50 mg/kg, po qd measured after 14 days relative to control; format: functional, Macaca fascicularis; set-up: scale not given: the % may be the effect or the level left; conditions: time 14 day
Mus musculus [17] = experiment: Reduction in C26:0/C16:0 LPC level in ABCD1 knock out mouse blood at 1 to 32 mg/kg, po qd and measured after 1 week; format: functional, organism-based; conditions: dose 1-32 mg/kg, time 1.0 weeks
Cynomolgus monkey [18] = experiment: Reduction in C26:0/C16:0 LPC level in wild type Cynomolgus monkey blood at 6.5 mg/kg, po qd measured after 14 days relative to control; format: functional, Macaca fascicularis; set-up: scale not given: the % may be the effect or the level left; conditions: time 14 day
[19] = Toxicity in Cynomolgus monkey assessed as convulsion at >50 mg/kg/day, po qd measured after 14 days; format: organism-based, Macaca fascicularis; conditions: in vivo, 336 h, time 14 day
[20] = Reduction in C26:0 LPC level in wild type mouse blood at 4 mg/kg, po qd and measured after 1 week relative to control; format: functional; set-up: scale not given: the % may be the effect or the level left; conditions: time 1 weeks
[21] = biological target: T3, Very long chain fatty acid elongase 6 (Homo sapiens); experiment: Inhibition of ELOVL6 in HEK293 cells assessed as reduction of C16:0 lipo phosphatidyl choline synthesis at 100 nM in presence of 13C-labeled acetate measured after 48 hrs by mass spectroscopic analysis; format: cell-based
[22] = biological target: 3',5'-cyclic phosphodiesterase (Homo sapiens) (UniProt O76074+P27815+Q14432+Q13956+P18545+O00408+Q13946+P54750+O76083+P35913+Q08499+Q07343+O43924+P16499+Q13370+P51160+O95263+Q9Y233+Q01064+Q08493+Q14123+O60658+Q9NP56); experiment: Inhibition of human PDE4 at 10 uM relative to control; format: protein assay
[23] = Half life in rat at 1 mg/kg, iv; format: ADME, organism-based; conditions: in vivo
[24] = Inhibition of ELOVL7 in HEK293 cells by radiometric enzyme assay; format: cell-based, Homo sapiens
Mus musculus [25] = experiment: Reduction in C26:0/C16:0 LPC level in ABCD1 knock out mouse CNS at 4 to 32 mg/kg, po qd and measured after 1 month; format: functional, organism-based; conditions: dose 4-32 mg/kg, time 1.0 months
[26] = Permeability of compound across apical to basolateral side in MDCK-MDR1 cells; format: ADME, cell-based, Canis lupus familiaris; conditions: dog, read-out: permeability
[27] = biological target: T2, Very long chain fatty acid elongase 1 (Homo sapiens); experiment: Inhibition of ELOVL1 in HEK293 cells assessed as increase in C20:0 lipo phosphatidyl choline synthesis at 100 nM in presence of 13C-labeled acetate measured after 48 hrs by mass spectroscopic analysis; format: cell-based
HEK293 = experiment: Cytotoxicity against HEK293 cells assessed as reduction in cell viability at 100 nM measured after 48 hrs; format: cell-based; conditions: human, hek293, 48 h, 0.1 µM
[28] = Reduction in C26:0/C16:0 LPC level in wild type Sprague-Dawley rat blood at 10 mg/kg, po qd measured after 28 days relative to control; format: functional; set-up: scale not given: the % may be the effect or the level left; conditions: time 28 day
MDR1 = experiment: Efflux ratio of permeability in dog MDCK-MDR1 cells; format: ADME, cell-based, Canis lupus familiaris
[29] = biological target: T2, Very long chain fatty acid elongase 1 (Homo sapiens); experiment: Inhibition of ELOVL1 in HEK293 cells assessed as reduction of C24:0 lipo phosphatidyl choline synthesis at 100 nM in presence of 13C-labeled acetate measured after 48 hrs by mass spectroscopic analysis; format: cell-based
[30] = biological target: T4, Very long chain fatty acid elongase 6 (Homo sapiens, UniProt Q9H5J4); experiment: Inhibition of ELOVL6 in HEK293 cells by radiometric enzyme assay; format: cell-based
T4 sequence (Q9H5J4 whole entry): T3 sequence (whole entry)

[31] = biological target: Kappa-type opioid receptor (Homo sapiens) (UniProt P41145); experiment: Inhibition of human kappa opioid receptor at 10 uM relative to control
[32] = Clearance in rat at 1 mg/kg, iv; format: ADME, organism-based; conditions: in vivo

Kappa-type opioid receptor (Homo sapiens), sequence (P41145 whole entry): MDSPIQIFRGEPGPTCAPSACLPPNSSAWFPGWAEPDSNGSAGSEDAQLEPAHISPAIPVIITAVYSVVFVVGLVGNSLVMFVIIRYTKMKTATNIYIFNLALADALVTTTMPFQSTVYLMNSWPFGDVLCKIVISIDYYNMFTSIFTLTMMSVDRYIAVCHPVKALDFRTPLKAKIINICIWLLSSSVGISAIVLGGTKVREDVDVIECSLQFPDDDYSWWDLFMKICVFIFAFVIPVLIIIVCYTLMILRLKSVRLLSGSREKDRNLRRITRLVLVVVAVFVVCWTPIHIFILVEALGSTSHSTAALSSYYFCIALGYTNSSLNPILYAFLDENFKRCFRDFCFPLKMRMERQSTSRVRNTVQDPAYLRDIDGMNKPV
Voltage-gated inwardly rectifying potassium channel KCNH2, sequence (Q12809 whole entry): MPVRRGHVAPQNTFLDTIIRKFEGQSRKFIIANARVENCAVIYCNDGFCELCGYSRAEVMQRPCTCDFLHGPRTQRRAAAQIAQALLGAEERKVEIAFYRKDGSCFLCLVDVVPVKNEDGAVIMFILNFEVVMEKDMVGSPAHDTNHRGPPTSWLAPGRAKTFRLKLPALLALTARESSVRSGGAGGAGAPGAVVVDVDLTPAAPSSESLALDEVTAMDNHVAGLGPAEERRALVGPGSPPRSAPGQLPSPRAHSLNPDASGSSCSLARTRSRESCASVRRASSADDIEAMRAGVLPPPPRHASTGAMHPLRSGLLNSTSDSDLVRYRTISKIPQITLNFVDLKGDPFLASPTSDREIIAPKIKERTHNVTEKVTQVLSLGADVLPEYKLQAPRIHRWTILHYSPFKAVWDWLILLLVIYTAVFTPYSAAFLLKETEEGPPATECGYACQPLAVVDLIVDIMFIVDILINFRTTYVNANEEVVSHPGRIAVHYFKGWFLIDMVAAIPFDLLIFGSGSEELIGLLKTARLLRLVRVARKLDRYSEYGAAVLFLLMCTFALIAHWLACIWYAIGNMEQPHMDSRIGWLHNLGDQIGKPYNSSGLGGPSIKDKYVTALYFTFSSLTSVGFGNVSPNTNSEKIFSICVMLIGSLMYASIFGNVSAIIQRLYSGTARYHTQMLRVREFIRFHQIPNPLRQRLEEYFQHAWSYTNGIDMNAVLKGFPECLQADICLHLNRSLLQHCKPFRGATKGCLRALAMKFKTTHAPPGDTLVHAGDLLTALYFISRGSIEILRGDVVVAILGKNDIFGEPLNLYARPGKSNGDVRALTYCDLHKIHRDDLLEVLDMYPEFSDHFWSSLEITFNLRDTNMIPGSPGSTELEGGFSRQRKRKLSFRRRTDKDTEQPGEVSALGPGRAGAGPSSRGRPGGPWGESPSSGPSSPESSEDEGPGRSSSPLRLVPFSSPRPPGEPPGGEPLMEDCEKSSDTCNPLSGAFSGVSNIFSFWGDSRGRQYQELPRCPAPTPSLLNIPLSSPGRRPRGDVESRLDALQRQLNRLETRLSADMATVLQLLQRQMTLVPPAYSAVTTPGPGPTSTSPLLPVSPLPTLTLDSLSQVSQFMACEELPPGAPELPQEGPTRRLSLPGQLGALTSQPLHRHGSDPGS

IC50 [1]: 440 nM | IC50 [2]: 0.86 µM
Structure (SMILES): Fc1ccc(CCOc2cc(N3CCCCC3)ccn2)cc1

IC50 [1]: 5 nM | logD [3]: 3.9 | hepatocyte CLint [4]: 17 µL/min/1e6 cells
Structure (SMILES): c1ccc([C@H]2CN(c3cc(O[C@H]4C[C@@H](c5ncco5)C4)ncn3)CCO2)cc1

IC50 [1]: 7 nM | logD [3]: 3.8 | hepatocyte CLint [4]: 111 µL/min/1e6 cells
Structure (SMILES): Cc1ccnn1CCCOc1cc(N2CCOC(c3ccccc3)C2)ncn1 (stereo not drawn)

bioavailability [6]: 45% | inhibition [10]: Active | inhibition [11]: inactive | IC50 [12]: > 50 µM | inhibition [21]: inactive | IC50 [1]: 0.4 nM | inhibition [22]: 74% | half-life [23]: 186 min | IC50 [24]: > 50 µM | Papp A→B [26]: 17.4 ×10⁻⁶ cm/s | inhibition [27]: Active | logD [3]: 3.3 | efflux ratio (MDR1): 1 | inhibition [29]: Active | IC50 [30]: > 50 µM | inhibition [31]: 54% | clearance [32]: 20 mL/min/kg | hepatocyte CLint [4]: 20 µL/min/1e6 cells
Structure (SMILES): c1ccc([C@H]2CN(c3cc(O[C@H]4C[C@@H](n5cccn5)C4)ncn3)CCO2)cc1
Activity [5]: 27% | IC50 [7]: > 30 µM | Activity [8]: 79% | Activity [9]: Toxic | Activity [13]: 70% | Activity [14]: 72% | Activity [15]: 70% | Activity (Cynomolgus monkey [16]): 65% | Activity (Mus musculus [17]): Active | Activity (Cynomolgus monkey [18]): 47% | Activity [19]: Toxic | Activity [20]: 45% | Activity (Mus musculus [25]): inactive | Activity (HEK293): Non-Toxic | Activity [28]: 78%

IC50 [1]: 9 nM | logD [3]: 2.9 | hepatocyte CLint [4]: 14 µL/min/1e6 cells
Structure (SMILES): c1ccc([C@H]2CN(c3cc(O[C@H]4C[C@@H](n5ccnn5)C4)ncn3)CCO2)cc1

IC50 [1]: 140 nM | logD [3]: 2.1 | hepatocyte CLint [4]: 23 µL/min/1e6 cells
Structure (SMILES): Cc1ccnn1CCCOc1cc(N2CCOC(c3ccnn3C)C2)ncn1 (stereo not drawn)

IC50 [1]: 230 nM | logD [3]: 5.3 | hepatocyte CLint [4]: 273 µL/min/1e6 cells
Structure (SMILES): Fc1ccc(CCOc2cc(N3CCCCCC3)ncn2)cc1

IC50 [1]: 7 nM | logD [3]: 2.9 | hepatocyte CLint [4]: 194 µL/min/1e6 cells
Structure (SMILES): Cc1ccnn1CCCOc1cc(N2CCOC(C(F)(F)F)C2)ncn1 (stereo not drawn)

IC50 [1]: 60 nM | logD [3]: 3.6 | hepatocyte CLint [4]: 539 µL/min/1e6 cells
Structure (SMILES): CN(C)c1cc(OCCc2ccc(F)cc2)ncn1

IC50 [1]: 15 nM | logD [3]: 5.7 | hepatocyte CLint [4]: 11 µL/min/1e6 cells
Structure (SMILES): c1ccc([C@H]2CN(c3cc(O[C@H]4C[C@@H](c5ccccc5)C4)ncn3)CCO2)cc1

IC50 [1]: 6700 nM | IC50 [2]: 21 µM
Structure (SMILES): Fc1ccc(CCOc2ccc(-c3cccnc3)cn2)cc1

IC50 [2]: > 20 µM
Structure (SMILES): Fc1ccc(CCOc2cc(-c3cccnc3)ccn2)cc1

IC50 [1]: 0.6 nM | logD [3]: 3.1 | hepatocyte CLint [4]: 9.2 µL/min/1e6 cells
Structure (SMILES): Fc1cnn([C@H]2C[C@H](c3cc(O[C@H]4C[C@@H](n5cccn5)C4)ncn3)C2)c1

IC50 [1]: 3 nM | logD [3]: 3.4 | hepatocyte CLint [4]: 144 µL/min/1e6 cells
Structure (SMILES): Fc1ccc(CCOc2cc(N3CCCOCC3)ncn2)cc1
